Positions of bridges follow the written chain, without caps; N, C: chain ends. Residues, ends and D or L forms follow the SMILES beside them. *: point of attachment. DOTA = O=C(O)CN1CCN(CC(=O)O)CCN(CC(=O)*)CCN(CC(=O)O)CC1; NODAGA = O=C(O)CN1CCN(CC(=O)O)CCN(C(CCC(=O)*)C(=O)O)CC1; Ahx = NCCCCCC(=O)O
How the values were obtained:
[1] = Stability of the radiopeptide formulated in saline (HPLC); assay type: physicochemical; conditions: for Intact radiopeptide: 0.9% NaCl, room temperature, 20 MBq/nmol, 10 MBq/100 µL
Method: The purified [^67Ga]GaCl3 in HCl (~ 0.1 M) was added to a sodium acetate solution (0.5 M, pH 8) to obtain a buffered system of pH ~ 4. After adding the respective peptide (DOTA-DX600, NODAGA-DX600, HBED-CC-DX600 or DOTA-BPP9a) in a quantity to obtain the desired molar activity (5–20 MBq/nmol), the reaction mixture was incubated at 95 °C for 15 min. Quality control was performed using a Merck Hitachi LaChrom HPLC system (Additional file 1). The radiopeptides were used directly for in vitro and in vivo studies without further purification steps. The stability of the radiopeptides (20 MBq/nmol) formulated in 0.9% NaCl (10 MBq/100 µL) was assessed at room temperature (Additional file 1). The highest molar activity used in these studies was 20 MBq/nmol which means that one of 73–74 molecules was labeled with gallium-67. Nevertheless, the labeling efficiency of the DX600-based peptides was assessed using the highest possible molar activity that would still allow for the preparation of the DX600-based radiopeptide at a radiochemical purity of > 95% (Additional file 1).
Methods: The integrity of the radiopeptides (20 MBq/nmol), formulated in 0.9% NaCl (10 MBq/100 µL) and incubated at room temperature, was determined by HPLC using the system described above. The HPLC chromatograms were analyzed by determination of the peak area of the radiolabeled peptide, the released gallium-67, as well as degradation products of unknown structure. The quantity of the intact product was expressed as percentage of the sum of integrated peak areas of the entire chromatogram and set in relation to the original value determined at t = 0, which was set as 100%.

HEK-ACE2 cells = assay: Cell uptake and internalization in HEK-ACE2 cells; assay type: cell-based, human
Method: HEK-293 cells transfected with ACE2 or ACE, referred to as HEK-ACE2 and HEK-ACE, respectively, were obtained from Innoprot (Innovative Technologies in Biological Systems S.L. Bizkaia, Spain). The cells were cultured in Dulbecco’s Modified Eagle Medium (DMEM) supplemented with nonessential amino acids, fetal calf serum and antibiotics. Hygromycin B was used to maintain the expression of ACE2 and ACE, respectively. The HEK cells were cultured under standard conditions at 37 °C and 5% CO2 and subcultured using PBS/EDTA and trypsin.
The uptake and internalization of [^67Ga]Ga-DOTA-DX600, [^67Ga]Ga-NODAGA-DX600, [^67Ga]Ga-HBED-CC-DX600 and [^67Ga]Ga-DOTA-BPP9a were determined using HEK-ACE2 and HEK-ACE cells. The cells were seeded in poly-D-lysine-coated 12-well plates allowing cell adhesion and growth overnight. After rinsing the cells with PBS, they were incubated with the respective radiopeptide (25 µL, 1.9 pmol, 38 kBq). In some cell samples, the radiopeptides were co-incubated with excess of cyclo-DX600 (2 µM) or lisinopril (4 µM) to block ACE2 or ACE, respectively. After incubation of the cells for 1 h or 3 h, they were rinsed with PBS or acidic stripping buffer (glycine buffer with NaCl 0.9%, pH 2.8) to determine the total uptake and internalization of the radiopeptides, respectively. Cell samples were lysed using NaOH (1 M, 1 mL) before counting the activity in a γ-counter. The results were expressed as a percentage of total added activity and normalized to an average content of ~ 0.3 mg protein per well.
Methods: The methods for cell uptake studies are reported in the main article. The cyclo-DX600 (ACE2 inhibitor) and lisinopril (ACE inhibitor) were applied at a final concentration of 2 µM and 4 µM, respectively.

[2] = In vitro stability in mouse blood plasma (TLC); assay type: in vitro ADME; conditions: 37 °C
Method: (§1) The ^67Ga-labeled DX600-radiopeptides (20 MBq/nmol) were incubated in human and mouse plasma (10 MBq/200 µL), respectively, at 37 °C. Aliquots were taken at variable time points up to 24 h for analysis using reversed phase thin layer chromatography (TLC) with citrate buffer (0.1 M, pH 5.5) as a mobile phase. Images of the TLC plates were obtained using a storage phosphor system (Cyclone Plus, PerkinElmer) and quantified using the OptiQuant software (version 5.0, Bright Instrument Co Ltd., PerkinElmer™) (Supplementary Information).
(§2) The radiopeptides were prepared and TLC experiments were performed immediately after radiolabeling by applying the diluted radiopeptides in saline (1 µL; ~0.05 MBq) and [^67Ga]GaCl3 solution (1 µL; ~0.05 MBq) on the TLC plates. The radiopeptides were incubated in mouse or human plasma (10 MBq/200 µL) at 37° C. TLC was performed with an aliquot of the plasma samples at the given timepoints (30 min, 1 h, 3 h and 24 h). The TLC plates were exposed to a phosphor screen followed by development using a storage phosphor system (Cyclone Plus, PerkinElmer). The quantification of the signals was carried out using the OptiQuant software (version 5.0, Bright Instrument Co Ltd., PerkinElmer^TM). The obtained chromatograms were analyzed by determination of the peak area of the radiolabeled peptide, the released gallium-67 as well as degradation products of unknown structure. The quantity of the intact product was expressed as percentage of the sum of integrated peak areas of the entire chromatogram.

[3] = In vitro stability in human blood plasma (TLC); assay type: in vitro ADME; conditions: 37 °C
Method: as §1, §2

ACE2 = target: T1, ACE2 (Homo sapiens, UniProt Q9BYF1); assay: ACE2-binding affinity (saturation binding on HEK-ACE2 cells); conditions: on ice, 1 h
T1 construct: host or cells: HEK-293
T1 sequence (Q9BYF1 18-805): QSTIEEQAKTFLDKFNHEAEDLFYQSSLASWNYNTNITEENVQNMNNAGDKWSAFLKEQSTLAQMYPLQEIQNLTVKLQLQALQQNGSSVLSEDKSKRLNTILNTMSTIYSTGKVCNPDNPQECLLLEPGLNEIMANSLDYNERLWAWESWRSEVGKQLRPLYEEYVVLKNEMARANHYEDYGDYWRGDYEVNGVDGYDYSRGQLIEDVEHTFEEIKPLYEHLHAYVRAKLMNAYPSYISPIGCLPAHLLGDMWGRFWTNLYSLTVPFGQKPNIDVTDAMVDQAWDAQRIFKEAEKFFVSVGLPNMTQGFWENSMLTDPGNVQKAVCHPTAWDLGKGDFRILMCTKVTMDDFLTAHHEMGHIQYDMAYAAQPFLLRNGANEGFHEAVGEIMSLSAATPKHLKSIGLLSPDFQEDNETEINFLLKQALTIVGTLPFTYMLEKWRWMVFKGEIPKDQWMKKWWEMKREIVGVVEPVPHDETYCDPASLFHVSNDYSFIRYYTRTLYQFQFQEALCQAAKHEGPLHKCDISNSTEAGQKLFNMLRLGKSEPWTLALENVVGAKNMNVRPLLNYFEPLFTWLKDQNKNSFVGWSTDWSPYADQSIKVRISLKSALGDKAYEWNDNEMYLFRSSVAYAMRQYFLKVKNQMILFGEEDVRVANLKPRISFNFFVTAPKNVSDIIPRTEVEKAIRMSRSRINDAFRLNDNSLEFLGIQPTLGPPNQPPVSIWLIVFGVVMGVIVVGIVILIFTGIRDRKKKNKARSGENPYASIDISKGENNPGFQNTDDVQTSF
Method: In order to determine the KD values of the DX600-based radiopeptides and [^67Ga]Ga-DOTA-BPP9a, HEK-ACE2 and HEK-ACE cells were seeded in 48-well-plates allowing adhesion and growth overnight. The cell samples were incubated with increasing concentrations (1‒2000 nM) of the radiopeptides (5 MBq/nmol) on ice. Some of the cell samples were co-incubated with an excess of cyclo-DX600 or lisinopril (20 µM, 10 nmol) to block ACE2 or ACE, respectively, enabling the determination of non-specific binding (Additional file 1). After 1 h incubation, the cells were rinsed with PBS and lysed with NaOH (1 M, 600 µL) to count the activity in a γ-counter. The KD values were determined by plotting specific binding (total binding minus unspecific binding) against the molar concentration of the added radiopeptide. A nonlinear regression analysis was performed using GraphPad Prism software (version 8.3.1).

SMILES | Intact radiopeptide ([1]; 1 h) [%] | Intact radiopeptide ([1]; 3 h) [%] | Intact radiopeptide ([1]; 24 h) [%] | Internalized fraction in HEK-ACE2 cells (HEK-ACE2 cells; 3 h incubation, acidic stripping buffer) [%] | Uptake in HEK-ACE2 cells (HEK-ACE2 cells; 3 h incubation, percentage of total added activity) [%] | Uptake in HEK-ACE2 cells in the presence of excess cyclo-DX600 (unspecifically bound) (HEK-ACE2 cells; co-incubation with cyclo-DX600 2 µM) [%] | Intact radiopeptide in mouse blood plasma ([2]; 3 h) [%] | Intact radiopeptide in mouse blood plasma ([2]; 24 h) [%] | Intact radiopeptide in human blood plasma ([3]; whole incubation period of 24 h) [%] | Degradation products (partial radiolysis) ([1]; saline, 24 h incubation) | Kd (ACE2) [nM] | Release of gallium-67 in mouse blood plasma ([2]; 3 h) | Release of gallium-67 in mouse blood plasma ([2]; 24 h) [%] | Intact radiopeptide in mouse blood plasma ([2]; first hour) | Released gallium-67 in human blood plasma ([3]; 24 h) [%]
CC(=O)N[C@@H](CCCCNC(=O)CCC(C(=O)O)N1CCN(CC(=O)O)CCN(CC(=O)O)CC1)C(=O)NCC(=O)N[C@@H](CC(=O)O)C(=O)N[C@@H](Cc1ccc(O)cc1)C(=O)N[C@@H](CO)C(=O)N[C@@H](Cc1c[nH]cn1)C(=O)N[C@H]1CSSC[C@@H](C(=O)N[C@H](C(=O)N[C@@H](Cc2ccc(O)cc2)C(=O)N2CCC[C@H]2C(=O)N[C@@H](CC(=O)O)C(=O)N2CCC[C@H]2C(=O)N[C@@H](CCC(=O)O)C(=O)NCC(=O)NCC(=O)NCC(N)=O)[C@@H](C)O)NC(=O)[C@H](CCCCN)NC(=O)[C@H](Cc2c[nH]c3ccccc23)NC(=O)[C@H](Cc2c[nH]c3ccccc23)NC(=O)[C@@H]2CCCN2C(=O)[C@H](Cc2ccc(O)cc2)NC(=O)[C@H](Cc2ccc(O)cc2)NC(=O)[C@H](CCCNC(=N)N)NC(=O)[C@H](CC(C)C)NC(=O)[C@@H]2CCCN2C(=O)[C@H](CO)NC1=O (some centres unmarked) [[^67Ga]Ga-NODAGA-DX600, metal not drawn] (Ac-K(NODAGA)GDYSHCSPLRYYPWWKCTYPDPEGGG-NH2; disulfide 7-18) | ≥99 | ≥99 | ≥99 | 8.2 ± 0.3 | 40 ± 3 | 3.1 ± 1.1 | 97 ± 1 | 36 ± 7 | > 99 |  |  |  |  |  | 
CC[C@H](C)[C@H](NC(=O)[C@H](CCC(N)=O)NC(=O)[C@@H]1CCCN1C(=O)[C@H](CCCNC(=N)N)NC(=O)[C@@H]1CCCN1C(=O)[C@H](Cc1c[nH]c2ccccc12)NC(=O)[C@H](CCC(=O)O)NC(=O)CCCCCNC(=O)CCCCCNC(=O)CN1CCN(CC(=O)O)CCN(CC(=O)O)CCN(CC(=O)O)CC1)C(=O)N1CCC[C@H]1C(=O)N1CCC[C@H]1C(=O)O [[^67Ga]Ga-DOTA-BPP9a, metal not drawn] ({DOTA-Ahx-Ahx}-EWPRPQIPP-OH) |  |  |  |  |  |  |  |  |  | ~ 11% |  |  |  |  | 
CC(=O)N[C@@H](CCCCNC(=O)CN1CCN(CC(=O)O)CCN(CC(=O)O)CCN(CC(=O)O)CC1)C(=O)NCC(=O)N[C@@H](CC(=O)O)C(=O)N[C@@H](Cc1ccc(O)cc1)C(=O)N[C@@H](CO)C(=O)N[C@@H](Cc1c[nH]cn1)C(=O)N[C@H]1CSSC[C@@H](C(=O)N[C@H](C(=O)N[C@@H](Cc2ccc(O)cc2)C(=O)N2CCC[C@H]2C(=O)N[C@@H](CC(=O)O)C(=O)N2CCC[C@H]2C(=O)N[C@@H](CCC(=O)O)C(=O)NCC(=O)NCC(=O)NCC(N)=O)[C@@H](C)O)NC(=O)[C@H](CCCCN)NC(=O)[C@H](Cc2c[nH]c3ccccc23)NC(=O)[C@H](Cc2c[nH]c3ccccc23)NC(=O)[C@@H]2CCCN2C(=O)[C@H](Cc2ccc(O)cc2)NC(=O)[C@H](Cc2ccc(O)cc2)NC(=O)[C@H](CCCNC(=N)N)NC(=O)[C@H](CC(C)C)NC(=O)[C@@H]2CCCN2C(=O)[C@H](CO)NC1=O [[^67Ga]Ga-DOTA-DX600, metal not drawn] (Ac-K(DOTA)GDYSHCSPLRYYPWWKCTYPDPEGGG-NH2; disulfide 7-18) |  |  |  |  |  |  | 95 ± 3 | 20 ± 13 |  |  | 98 ± 10 | ~ 4% | > 50 | intact | > 30

— publication PMC10113987, “A tool for nuclear imaging of the SARS-CoV-2 entry receptor: molecular model and preclinical development of ACE2-selective radiopeptides” (EJNMMI Research, 2023)
